Source: patent US12484574B2, “Agent for promoting undifferentiation and cryoprotective agent using aprotic zwitterion” (JAPAN SCIENCE AND TECHNOLOGY AGENCY, priority 2019, dated 2025)
Entries after “also recorded” stand apart in the source; their conditions may differ.

What was measured:
Human skin fibroblasts [1] = test: Cell freezing, slow freezing method, viable cell count after thawing (Examples 2, 3); assay type: cell-based; details: 5% by weight in H2O; frozen to −80° C. at −1° C./min; FIG. 3, FIG. 6
Protocol: (§1) CultureSure® cryopreservation solution (manufactured by FUJIFILM Wako Pure Chemical Corp.) (hereinafter, referred to as “FM”) • H2O • 5% by weight of DMSO/H2O • 5% by weight of OE2imC3C/H2O
(§2) The cells to be frozen (two types) were centrifugally recovered by trypsin treatment and diluted with Dulbecco's modified Eagle medium (DMEM), and each cell concentration was measured. The types and cell concentrations of the cells are as follows. • Human skin fibroblasts 5.0×10^5 cells/100 μl • Mouse fibroblasts C57BL/6-GFP 5.0×10^5 cells/100 μl
(§3) Subsequently, the cells of each type were dispensed at 1 ml/tube to 1.5 ml tubes, centrifuged, suspended in 100 μl each of the cryopreservation solutions described above, and frozen at a cooling temperature of −80° C. at a cooling rate of −1° C./min using a cell freezing container Mr. Frosty®.
1 ml of a medium was added to the cryopreservation vial for thawing, and a supernatant was removed by centrifugation. Subsequently, the cells obtained by centrifugation were resuspended in a medium, followed by the measurement of a viable cell count. Then, culture was started in a 6-well plate. […]
The cells to be frozen were centrifugally recovered by trypsin treatment and diluted with Dulbecco's modified Eagle medium (DMEM), and the cell concentration was measured. […]

[2] = tested on: Mouse fibroblasts C57BL/6-GFP; test: Cell freezing, slow freezing method, viable cell count after thawing (Example 2); assay type: cell-based; details: 5% by weight in H2O; frozen to −80° C. at −1° C./min; FIG. 4
Protocol: as §1, §2, §3
(§4) 1 ml of a medium was added to the cryopreservation vial for thawing, and a supernatant was removed by centrifugation. Subsequently, the cells obtained by centrifugation were resuspended in a medium, followed by the measurement of a viable cell count. Then, culture was started in a 6-well plate.

[3] = tested on: Mouse fibroblasts C57BL/6-GFP; test: Cell freezing, rapid freezing method, viable cell count (Example 4); assay type: cell-based
Protocol: (§5) Human ES cell and human iPS cell cryopreservation solution DAP213 (manufactured by ReproCELL Inc.) • 75% by weight of OE2imC3C/H2O • 50% by weight of OE2imC3C/H2O • 25% by weight of OE2imC3C/H2O
as §2, with “fibroblasts 8.2×10^5” for “fibroblasts 5.0×10^5”, “μl (N=3)” for “μl”, “C57BL/6-GFP 1.2×10^6” for “C57BL/6-GFP 5.0×10^5”
(§6) Subsequently, the cells of each type were dispensed at 1 ml/tube to 1.5 ml tubes, centrifuged, suspended in 100 μl each of the cryopreservation solutions described above, and immediately thereafter rapidly frozen in liquid nitrogen within 10 to 15 seconds. Then, the cells were preserved for 3 days in a liquid nitrogen tank.
(§7) The cryopreservation vial was rapidly thawed with 1 ml of a medium, and a supernatant was removed by centrifugation. Subsequently, the cells obtained by centrifugation were resuspended in a medium, followed by the measurement of a viable cell count. Then, culture was started in a 6-well plate.
(§8) 24 hours after the start of culture, the viable cell count was measured.

Human skin fibroblasts [4] = test: as above; assay type: cell-based
Protocol: as §5
as §2, with “fibroblasts 8.2×10^5” for “fibroblasts 5.0×10^5”, “μl (N=3)” for “μl”, “C57BL/6-GFP 1.2×10^6” for “C57BL/6-GFP 5.0×10^5”
as §6, §7, §8

[5] = tested on: Human skin fibroblasts / Mouse fibroblasts C57BL/6-GFP; test: Cell state 24 hours after start of culture, slow freezing method (microscope); assay type: cell-based; details: 5% by weight in H2O, thawed, cultured 24 hours, cell type of FIG. 5 not stated
Protocol: as §2, §3, §4
24 hours after the start of culture, the sample was fixed in 4% paraformaldehyde (PFA) and observed under a microscope.

[6] = Glass transition temperature and heat quantity by differential scanning calorimetry (DSC); assay type: physicochemical; details: 10 wt % in purified water, cooling −1° C./min, heating 5° C./min
Protocol: The glass transition temperature and the heat quantity were determined by differential scanning calorimetry (DSC). The measurement was performed with a cooling rate set to −1° C./min an d a heating rate set to 5° C./min.

Wild-type zebrafish AB* = test: Influence on development of zebrafish; assay type: in vivo; details: fertilized eggs cultured 1.5 to 24 hours
Protocol: All experiments were conducted based on a protocol approved by the animal experiment committee of Kanazawa University. Wild-type zebrafish AB* was raised at 28.5° C. with 14-hour light/10-hour dark cycles in a circulating water system. The medium used was E3 medium (5 mM NaCl, 0.17 mM KCl, 0.33 mM CaCl2, 0.33 mM MgSO4). The medium was supplemented with 1%, 2%, 5% or 10% DMSO or HLS (OE2imC3C). For each test group, eggs were fertilized and then cultured for 1.5 to 24 hours. The embryos thus cultured were washed with E3 medium twice and treated with 1-phenyl-2-thiourea (FUJIFILM Wako Pure Chemical Corp.) in order to prevent pigmentation. The embryos were stained with 0.6 mg/mL o-dianisidine (Tokyo Chemical Industry Co., Ltd.) for 15 minutes and fixed in 4% paraformaldehyde (FUJIFILM Wako Pure Chemical Corp.). The embryos were washed with phosphate-buffered saline containing 0.1% Tween (Sigma-Aldrich Co. LLC) twice. The survival rate was similar between DMSO and HLS (OE2imC3C) up to the 2% addition groups, whereas the survival rate differed largely therebetween in the 5% addition groups.

Q: Which “viable cell count after thawing” value (Human skin fibroblasts [1]) does the source give for `COCCOCCn1cc[n+](CCCC(=O)[O-])c1` [OE2imC3C] here?
A: larger viable cell count than that in the case of using conventional DMSO; also recorded: superior to the commercially available cryopreservation solution (FM)

Q: And the “viable cell count after thawing” value [2]?
A: larger viable cell count than that in the case of using conventional DMSO

Q: What about the “viable cell count after thawing” value ([3]; 75, 50, 25% by weight in H2O, rapidly frozen in liquid nitrogen, preserved 3 days, FIG. 8) of the same compound?
A: comparable to that of the commercially available cryopreservation solution DAP213; also recorded: a lower concentration (25% by weight) offered a higher survival rate of the cells

Q: What about the “viable cell count 24 hours after the start of culture” value ([3]; rapid freezing method, FIG. 10) of the same compound?
A: reached a high value, albeit being inferior to the commercially available cryopreservation solution DAP213

Q: What about the “viable cell count after thawing” value (Human skin fibroblasts [4]; 75, 50, 25% by weight in H2O, rapidly frozen in liquid nitrogen, preserved 3 days, FIG. 7) of the same compound?
A: comparable to that of the commercially available cryopreservation solution DAP213; also recorded: a lower concentration (25% by weight) offered a higher survival rate of the cells

Q: What about the “viable cell count 24 hours after the start of culture” value (Human skin fibroblasts [4]; rapid freezing method, FIG. 9) of the same compound?
A: reached a high value, albeit being inferior to the commercially available cryopreservation solution DAP213

Q: What about the “cell state 24 hours after the start of culture” value [5] of the same compound?
A: confirmed to adhere to the dish bottom

Q: What about the Heat quantity [6] of the same compound?
A: -198.7 J/g

Q: What about the Tg [6] of the same compound?
A: −85.69 °C

Q: What about the Survival rate (Wild-type zebrafish AB*; Concentration 1 % (v/v for DMSO, w/v for HLS) in E3 medium) of the same compound?
A: 27/27

Q: What about the Survival rate (Wild-type zebrafish AB*; Concentration 2 % (v/v for DMSO, w/v for HLS) in E3 medium) of the same compound?
A: 27/27

Q: What about the Survival rate (Wild-type zebrafish AB*; Concentration 5 % (v/v for DMSO, w/v for HLS) in E3 medium) of the same compound?
A: 27/27

Q: And the Survival rate (Wild-type zebrafish AB*; Concentration 10 % (v/v for DMSO, w/v for HLS) in E3 medium)?
A: 0/27
